From patent publication US4347252A, “Rodenticidal 1-(3,5-bistrifluoromethylphenyl)-3-(4-t-butylpiperidino)prop-1-yne” (priority 1980, dated 1982)

Columns and labels:
[1] = system: rodents
[2] = system: mice (laboratory strain); test: Acute Oral Toxicity in Mice (Laboratory Strain); type: in vivo
Procedure: Acute Oral Toxicity in Mice (Laboratory Strain)
Groups of mice were dosed orally with graded doses of the test compound in aqueous suspension and observed until there had been no deaths for at least three days. The acute oral LD50, that is to say the dose in mg/kg animal body weight necessary to kill 50% of the mice, was determined from the numbers of animals for each dose which died during the observation period by reference to published tables.

Question: Which results are given for `CC(C)(C)C1CCN(CC#Cc2cc(C(F)(F)F)cc(C(F)(F)F)c2)CC1` [Compound of formula I as free base, 1-(3,5-bistrifluoromethylphenyl)-3-(4-tert-butylpiperidino)prop-1-yne]?
Answer: major symptom of toxicity ([1]; in vivo): sedation is the major symptom of toxicity; manner of death of treated animals ([1]; in vivo): die quietly, without exhibiting signs of distress; period of delay between ingestion and death compared with anticoagulant rodenticides ([1]; vs anticoagulant rodenticides): shorter; toxicity to strains of rodents resistant to anticoagulant rodenticides ([1]; vs strains which do not possess this resistance): equally as toxic; LD50 (acute oral) ([2]; aqueous suspension): 68 mg/kg animal body weight; Observations: signs of poisoning ([2]; prior to death / after dosing): Some signs of poisoning
